# pIC50: −log10 of the molar value. Like-named read-outs stand apart in the source and are kept apart here.
# How the values were obtained:
# LNCaP/AR cells = experiment: Inhibition of proliferation of LNCaP/AR prostate cancer cells (CCK-8); assay type: cell-based
# androgen receptor (AR) = molecular target: T1, androgen receptor (AR) (Homo sapiens, UniProt P10275); experiment: Degradation of androgen receptor (AR) protein in VCaP cells by ELISA; assay type: cell-based; conditions: for inhibition at 0.1 µM: 16 h, read-out: % degradation
# T1 sequence (P10275 1-920): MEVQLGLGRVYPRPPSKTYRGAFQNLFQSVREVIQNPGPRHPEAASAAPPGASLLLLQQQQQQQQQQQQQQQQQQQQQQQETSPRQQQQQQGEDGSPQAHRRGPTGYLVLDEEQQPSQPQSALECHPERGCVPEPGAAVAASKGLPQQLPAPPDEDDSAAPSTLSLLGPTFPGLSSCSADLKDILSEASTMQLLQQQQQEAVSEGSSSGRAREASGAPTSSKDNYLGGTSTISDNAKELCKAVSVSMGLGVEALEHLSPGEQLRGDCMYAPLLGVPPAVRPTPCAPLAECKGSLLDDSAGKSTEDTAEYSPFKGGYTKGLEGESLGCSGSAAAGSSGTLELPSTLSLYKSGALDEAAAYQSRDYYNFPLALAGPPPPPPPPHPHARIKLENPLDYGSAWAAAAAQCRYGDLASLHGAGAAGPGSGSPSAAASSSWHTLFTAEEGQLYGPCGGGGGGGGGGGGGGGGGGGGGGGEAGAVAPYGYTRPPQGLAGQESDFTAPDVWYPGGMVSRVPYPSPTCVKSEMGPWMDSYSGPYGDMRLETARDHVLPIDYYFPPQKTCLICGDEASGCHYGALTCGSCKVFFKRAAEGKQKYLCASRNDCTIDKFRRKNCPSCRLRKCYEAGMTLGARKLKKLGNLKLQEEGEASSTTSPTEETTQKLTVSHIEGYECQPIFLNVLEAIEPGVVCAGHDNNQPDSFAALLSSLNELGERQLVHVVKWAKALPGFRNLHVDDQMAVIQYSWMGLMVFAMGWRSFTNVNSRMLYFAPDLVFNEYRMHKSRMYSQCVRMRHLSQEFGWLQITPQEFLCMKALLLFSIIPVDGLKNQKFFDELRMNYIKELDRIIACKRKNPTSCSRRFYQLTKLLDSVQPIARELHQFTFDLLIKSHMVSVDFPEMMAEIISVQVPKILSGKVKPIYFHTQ
# [1] = 144 h, proliferation of LNCap/AR cells, 6 days, CCK-8, read-out: IC50
# [2] = percentage of degraded AR at 100 nM, VCaP cells, ELISA
# [3] = proliferation of LNCap/AR cells, 6 days, CCK-8, read-out: IC50
pIC50 (LNCaP/AR cells; [1]),Compound,pIC50 (LNCaP/AR cells; [3]),other results
> 7.00,Cc1ncsc1-c1ccc([C@H](C)NC(=O)[C@@H]2C[C@@H](O)CN2C(=O)[C@@H](NC(=O)COCCC#Cc2ccc3c(c2)CN([C@H]2C(C)(C)[C@H](Oc4ccc(C#N)c(Cl)c4)C2(C)C)C3=O)C(C)(C)C)cc1 [Compound 27],,inhibition at 0.1 µM (androgen receptor (AR); [2]): 50 to 79%
> 7.00,[2H]C([2H])([2H])N(C(=O)c1ccc(C#CCCCCCOCC(=O)N[C@H](C(=O)N2C[C@H](O)C[C@H]2C(=O)N[C@@H](C)c2ccc(-c3scnc3C)cc2)C(C)(C)C)cc1)[C@H]1C(C)(C)[C@H](Oc2ccc(C#N)c(Cl)c2)C1(C)C [Compound 24],,inhibition at 0.1 µM (androgen receptor (AR); [2]): 50 to 79%
,"CC(=O)O[C@@H]1C[C@H](C(=O)N[C@H](C)c2ccc(-c3scnc3C)cc2)N(C(=O)[C@H](NC(=O)COCCCCCNc2ccc(C(=O)NC3C[C@]4(C)O[C@@]3(C)[C@@H]3C(=O)N(c5ccc(C#N)c(Cl)c5)C(=O)[C@@H]34)c(F)c2)C(C)(C)C)C1 (stereo partly drawn) [Compound 19, (3S,5R)-1-((2R)-2-(2-((5-((4-(((3aS,4S,7S,7aR)-2-(3-chloro-4-benzonitrile)4,7-dimethyl-1,3-dioxooctahydro-1H-4,7-epoxyisoindolin-5-yl)carbamoyl)-3-fluorophenyl)amino)pentyl)oxy)acetylamino)-3,3-dimethylbutyryl)-5-(((R)-1-(4-(4-methylthiazol-5-yl)phenyl)ethyl)carbamoyl)pyrrolidin-3-yl acetate]",,"pIC50 (LNCaP/AR cells; LNCaP/AR, 144 h): > 7.00; inhibition at 0.1 µM (androgen receptor (AR); VCaP): < 25%"
,Cc1ncsc1-c1ccc([C@H](C)NC(=O)[C@H]2C[C@@H](O)CN2C(=O)[C@@H](NC(=O)COCCCCC#Cc2cc3c(cn2)C(=O)N(C2C(C)(C)C(Oc4ccc(C#N)c(Cl)c4)C2(C)C)C3)C(C)(C)C)cc1 (stereo partly shown) [Compound 38],> 7.00,% degradation (androgen receptor (AR)): B (key: A: >80%; B: 79%-50%; C: 49%-25%; D: <25%)
,"CC(=O)O[C@@H]1C[C@@H](C(=O)N[C@@H](C)c2ccc(-c3scnc3C)cc2)N(C(=O)[C@@H](NC(=O)COCCCCCNc2ccc3c(c2)C(=O)N([C@H]2C(C)(C)[C@H](Oc4ccc(C#N)c(Cl)c4)C2(C)C)C3)C(C)(C)C)C1 [Compound 6, (3R,5S)-1-((S)-2-(2-((5-((2-((1R,3R)-3-(3-chloro-4-cyanophenoxy)-2,2,4,4-tetramethylcyclobutyl)-3-oxoisoindolin-5-yl)amino)pentyl)oxy)acetylamino)-3,3-dimethylbutyryl)-5-(((S)-1-(4-(4-methylthiazol-5)-yl)phenyl)ethyl)carbamoyl) pyrrolidin-3-yl acetate]",,"pIC50 (LNCaP/AR cells; LNCaP/AR, 144 h): > 7.00; inhibition at 0.1 µM (androgen receptor (AR); [2]): 50 to 79%"
,"(2R,4R)-1-((S)-2-(2-((5-((4-((1r,3r)-3-(4-(4H-1,2,4-triazol-1-yl)phenoxy)-2,2,4,4-tetramethylcyclobutyl)carbamoyl)phenyl)amino)pentyl)oxy)acetamide)-3,3-dimethylbutyryl)-4-hydroxy-N-((S)-1-(4-(4-methylthiazol-5-yl)phenyl)ethyl) pyrrolidine-2-carboxamide [Compound 405]",< 6.00,
< 6.00,"Cc1ncsc1-c1ccc([C@H](C)NC(=O)[C@@H]2C[C@@H](O)CN2C(=O)[C@@H](NC(=O)COCCCCCNc2ccc3c(c2)CN([C@H]2C(C)(C)[C@H](Oc4ccc(C#N)c(Br)c4)C2(C)C)C3=O)C(C)(C)C)cc1 [Compound 433, (2S,4R)-1-((S)-2-(2-((5-((2-((1r,3r)-3-(3-bromo-4-cyanophenoxy)-2,2,4,4-tetramethylcyclobutyl)-1-oxoisoindolin-5-yl)amino)pentyl)oxy)acetylamino)-3,3-dimethylbutyryl)-4-hydroxy-N-((S)-1-(4-(4-methylthiazole5-yl)phenyl)ethyl) pyrrolidinyl-2-carboxamide]",,
,"(2R,4R)-1-((S)-2-(2-((1-(3-(2-((1r,3r)-3-(3-chloro-4-cyanophenoxy)-2,2,4,4-tetramethylcyclobutyl)-1-oxoisoindolin-5-yl)prop-2-yn-1-yl)azetidine-3-yl)oxy) acetylamino)-3,3-dimethylbutyryl)-4-hydroxy-N-((S)-1-(4-(4-(4-methylthiazol-5-yl)phenyl)ethyl)pyrrolidine-2-carboxamide [Compound 40]",6.30 to 7.00,
,"(2S,4R)-1-((S)-2-(3-((4-(2-((1r,3r)-3-(3-chloro-4-cyanophenoxy)-2,2,4,4-tetramethylcyclobutyl)-1-oxoisoindolin-5-yl)3-butynoxy)propylamino)-3,3-dimethylbutanol)-4-hydroxy-N-(S)-1-(4-(4-methylthiazole)phenyl)ethyl) formamide [Compound 34]",> 7.00,
,"(2S,4R)-1-((S)-2-(2-((2-((5-(1r,3r)-3-(3-chloro-4-cyanophenoxy)-2,2,4,4-tetramethylcyclobutyl)-1-oxoisoindolin-5-yl)oxy)pentyl)oxy)acetamide)-3,3-dimethylbutyryl)-4-hydroxy-N-((S)-1-(4-(4-methylthiazol-5-yl)phenyl)ethyl) pyrrolidine-2-carboxamide [Compound 406]",6.30 to 7.00,
6.30 to 7.00,CC1(C)[C@H](Oc2ccc(C#N)c(Cl)c2)C(C)(C)[C@H]1N1Cc2cc(C#CC3CCN(C4CCN(c5ccc6c(c5)C(=O)N(C5CCC(=O)NC5=O)C6=O)CC4)CC3)ccc2C1=O (stereo partly shown) [Compound 52],,
> 7.00,Cc1ncsc1-c1ccc([C@H](C)NC(=O)[C@@H]2C[C@@H](O)CN2C(=O)[C@@H](NC(=O)COCCCC#Cc2ccc3c(c2)CN([C@H]2C(C)(C)[C@H](Oc4ccc(C#N)c(Cl)c4)C2(C)C)C3=O)C(C)(C)C)cc1 [Compound 21],,
,"CC1(C)[C@H](Oc2ccc(C#N)c(Cl)c2)C(C)(C)[C@H]1N1Cc2cc(C#Cc3cnn(C4CN(c5cc6c(cc5F)C(=O)N(C5CCC(=O)NC5=O)C6=O)C4)c3)ccc2C1=O (stereo partly shown) [Compound 310, 2-chloro-4-((1r,3r)-3-(5-((1-(1-(2-(2,6-dioxopiperidin-3-yl)-6-fluoro-1,3-dioxoisoindolin-5-yl)azetidine-3-yl)-1H-pyrazol-4-yl)ethynyl)-1-oxoisoindolin-2-yl)-2,2,4,4-tetramethylcyclobutoxy)benzonitrile]",< 6.00,
,"2-chloro-4-((1r,4r)-4-(2-(4-((4-(3-(2,6-dioxopiperidin-3-yl)-2-methyl-4-oxo-3,4-dihydroquinazoline-7-yl)piperazin-1-yl)methyl)piperidin-1-yl)-5-oxo-5H-pyrrolo[3,4-b]pyridin-6(7H)-yl)cyclohexyl)oxy)benzonitrile [Compound 309]",6.30 to 7.00,
> 7.00,Cc1ncsc1-c1ccc([C@H](C)NC(=O)[C@@H]2C[C@@H](O)CN2C(=O)[C@@H](NC(=O)COCC2CCN(c3ccc4c(c3)CN([C@H]3C(C)(C)[C@H](Oc5ccc(C#N)c(Cl)c5)C3(C)C)C4=O)CC2)C(C)(C)C)cc1 [Compound 409],,
,Cc1ncsc1-c1ccc([C@H](C)NC(=O)[C@@H]2C[C@@H](O)CN2C(=O)[C@@H](NC(=O)CCN2CC(CC#Cc3ccc4c(c3)CN([C@H]3C(C)(C)[C@H](Oc5ccc(C#N)c(Cl)c5)C3(C)C)C4=O)C2)C(C)(C)C)cc1 [Compound 44],,"pIC50 (LNCaP/AR cells; LNCaP/AR, 144 h): 6.30 to 7.00"
6.00 to 6.30,"[2H]C([2H])([2H])N(C(=O)c1ccc(N2CCC(CN3CCN(c4cc5c(cc4F)C(=O)N(C4CCC(=O)NC4=O)C5)CC3)CC2)nc1)[C@H]1CC[C@H](Oc2ccc(C#N)c(Cl)c2)CC1 (stereo partly shown) [Compound 305, N-((1r,4r)-4-(3-chloro-4-cyanophenoxy)cyclohexyl)-6-(4-((4-(2-(2,6-dioxopiperidin-3-yl)-6-fluoro-1-oxoisoindol-5-yl)piperazin-1-yl)methyl)piperidin-1-yl)-N-deuteromethylnicotinamide]",,

Compound,pIC50 (LNCaP/AR cells; [1]),pIC50 (LNCaP/AR cells; [3]),other results
N#Cc1ccc(O[C@H]2CC[C@H](N3Cc4nc(N5CCC(CN6CCN(c7cc8c(cc7F)C(=O)N(C7CCC(=O)NC7=O)C8=O)CC6)CC5)ccc4C3=O)CC2)cc1Cl (stereo partly shown) [Compound 200],< 6.00,,inhibition at 0.1 µM (androgen receptor (AR); VCaP): 50 to 79%
"CC1(C)[C@H](Oc2ccc(C#N)c(Cl)c2)C(C)(C)[C@H]1N1Cc2cc(C#CC3CCN(C4CN(c5ccc6c(c5)C(=O)N(C5CCC(=O)NC5=O)C6=O)C4)CC3)ccc2C1=O (stereo partly shown) [Compound 53, 2-chloro-4-((1r,3r)-3-(5-((1-(I-(2-(2,6-dioxopiperidin-3-yl)-1,3-dioxoisoindolin-5-yl)azelaic acid-3-yl)piperidin-4-yl)ethynyl)-1-oxoisoindolin-2-yl)-2,2,4,4-tetramethylcyclobutoxy)benzonitrile]",6.30 to 7.00,,

# Source: patent US20230091225A1, “Bifunctional chimeric heterocyclic compounds for targeted degradation of androgen receptors and use thereof” (HINOVA PHARMACEUTICALS INC., priority 2019, published 2023)
